From patent publication US8415293B2, “Peptide mediators of cholesterol efflux” (The Regents of the University of California, priority 2008, dated 2013)
Square brackets hold non-standard residues; d marks the D form. Ends that are not written are not given here.

Tests used:
[1] = Scaled = (Raw + 2.061)/4.484; Black and Mould 1991; cited from earlier work
ABCA1 [2] = biological target: T1, ABCA1 (Mus musculus, UniProt P41233); test: Cholesterol efflux from [3H]cholesterol-labeled J774 macrophages ± cAMP (upregulates ABCA1); format: cell-based; settings: for cholesterol efflux from cells induced for the ABCA1 response (in words): lipid-free peptide 30 μg/ml, 8 h, +cAMP compared to no cAMP; for % cholesterol efflux (8 hours): J774 macrophages
T1 construct: cell lines in which cholesterol efflux can be enhanced using a cAMP analog that up-regulates ABCA1 protein expression (e.g., J774 macrophages); endogenous in cells; host or cells: J774 macrophages
Source text: Suitable cholesterol efflux assays are described in, […] and Oda, M. N., Biochemistry, 41:2089-2096 (2002); Jia et al., Biochem. Biophys. Res. Common., 297:206-213 (2002). In some embodiments, a polypeptide known to mediate cholesterol efflux (e.g., helix 9/10 of Apo A-I) is used to screen for additional mediators of cholesterol efflux in a cell based assay. For example, cell lines in which cholesterol efflux can be enhanced using a cAMP analog that up-regulates ABCA1 protein expression (e.g., J774 macrophages) can conveniently be used to assess the ability of a polypeptide of the present invention to mediate cholesterol efflux. The cells are incubated with labeled cholesterol (e.g., [^3H]cholesterol) under conditions appropriate for cholesterol uptake by the cells. Thus, cAMP or cAMP analogs (e.g., CPT-cAMP) are incubated with the cells for a suitable time before the initiation of cellular cholesterol efflux, i.e., prior to contacting the cells with a test polypeptide. Measurement of labeled cholesterol appearing in the medium is used to determine the cholesterol efflux mediating activity of the test polypeptide. […] J774 cells plated on 24-well culture plates were labeled (48 h) with 1 μCi/ml of [^3H]cholesterol in 1% FBS. A cAMP analog was added (0.3 mM) to some wells (12-18 h) to up-regulate ABCA1 expression. Following cAMP treatment, cells were rinsed, and then exposed to peptide in serum-free medium. Panel A provides data showing the dependence of cholesterol efflux on concentration (lipid-free SEQ ID NO:2 peptide (squares) and lipid-free apolipoprotein(apo)A-I (circles)); cAMP-treated cells were used. The percentage of cellular [^3H]cholesterol that appeared in the medium at 8 h is shown, subtracting background efflux to serum-free medium alone. Values are means±SD; apoA-I, n=8; SEQ ID NO:2 peptide, n=3. Km values reflecting efficiency for cholesterol efflux stimulation were calculated (Prism 4 software) from concentration-dependence curves using the Michaelis-Menton equation and 4 h efflux data.

ABCA1 [3] = biological target: T1, ABCA1; test: Cholesterol efflux activity of peptides after exposure to acrolein (MPO-derived oxidation product), J774 macrophages + cAMP; format: cell-based; settings: acrolein:peptide mole ratio 25:1, 18 h, 37° C.; efflux at 2 μg/ml
Protocol: Peptides corresponding to SEQ ID NO:2 and SEQ ID NO:12 were exposed to acrolein (acrolein:peptide mole ratio=25:1) for 18 h at 37° C. Control peptides were similarly incubated in the absence of acrolein. Control and acrolein-treated peptides were then dialyzed and used for cholesterol efflux experiments. […] J774 macrophages treated with cAMP, which up-regulates ABCA1, were used in both panels. Cholesterol efflux assays were conducted using peptides at 2 μg/ml serum free-medium.

ABCA1 [4] = biological target: T1, ABCA1; test: Cholesterol efflux from [3H]cholesterol-labeled J774 macrophages ± cAMP (upregulates ABCA1); format: cell-based; settings: concentration dependence
[5] = test system: HDL subpopulations in human plasma; test: preβ-1 HDL formation in human plasma (2D gel electrophoresis, apoA-I Western blot); format: biochemical; settings: peptide 30 μg/ml (peptide:apoA-I mole ratio ~1:5), 5 minutes, 37° C.
Protocol: Peptide of the invention may also be screened for the ability to induce preβ-1 HDL formation in human plasma. In one example of such an analysis, a peptide to be tested is added to human plasma. Plasma with and without peptide are incubated and then evaluated, e.g., by agarose gel electrophoresis in the first dimension followed by native gradient gel electrophoresis in the second dimension to evaluate the population of HDL particles present in the human plasma samples.
Peptides corresponding to SEQ ID NO:2 were added to human plasma at a final concentration of 30 μg/ml (i.e. peptide:apoA-I mole ratio ˜1:5). Plasma with and without peptide were subsequently incubated for 5 minutes at 37° C. Following incubations, samples of plasma were subjected to agarose gel electrophoresis in the first dimension followed by native gradient gel electrophoresis in the second dimension. Proteins on resulting gels were transferred to nitrocellulose and analyzed by Western-blot analysis using an apoA-I antibody. The distribution of HDL subpopulations in plasma treated with vehicle alone (open bars), SEQ ID NO:2 peptide composed of all D-amino acids (intermediate shade), and SEQ ID NO:2 peptide composed of all L-amino acids (darkly shaded) is shown. […] Reductions of α-HDL subpopulations indicate that peptides specifically interact with distinct HDL species to generate preβ-1 apoA-I particles.

T1 sequence (P41233 whole entry): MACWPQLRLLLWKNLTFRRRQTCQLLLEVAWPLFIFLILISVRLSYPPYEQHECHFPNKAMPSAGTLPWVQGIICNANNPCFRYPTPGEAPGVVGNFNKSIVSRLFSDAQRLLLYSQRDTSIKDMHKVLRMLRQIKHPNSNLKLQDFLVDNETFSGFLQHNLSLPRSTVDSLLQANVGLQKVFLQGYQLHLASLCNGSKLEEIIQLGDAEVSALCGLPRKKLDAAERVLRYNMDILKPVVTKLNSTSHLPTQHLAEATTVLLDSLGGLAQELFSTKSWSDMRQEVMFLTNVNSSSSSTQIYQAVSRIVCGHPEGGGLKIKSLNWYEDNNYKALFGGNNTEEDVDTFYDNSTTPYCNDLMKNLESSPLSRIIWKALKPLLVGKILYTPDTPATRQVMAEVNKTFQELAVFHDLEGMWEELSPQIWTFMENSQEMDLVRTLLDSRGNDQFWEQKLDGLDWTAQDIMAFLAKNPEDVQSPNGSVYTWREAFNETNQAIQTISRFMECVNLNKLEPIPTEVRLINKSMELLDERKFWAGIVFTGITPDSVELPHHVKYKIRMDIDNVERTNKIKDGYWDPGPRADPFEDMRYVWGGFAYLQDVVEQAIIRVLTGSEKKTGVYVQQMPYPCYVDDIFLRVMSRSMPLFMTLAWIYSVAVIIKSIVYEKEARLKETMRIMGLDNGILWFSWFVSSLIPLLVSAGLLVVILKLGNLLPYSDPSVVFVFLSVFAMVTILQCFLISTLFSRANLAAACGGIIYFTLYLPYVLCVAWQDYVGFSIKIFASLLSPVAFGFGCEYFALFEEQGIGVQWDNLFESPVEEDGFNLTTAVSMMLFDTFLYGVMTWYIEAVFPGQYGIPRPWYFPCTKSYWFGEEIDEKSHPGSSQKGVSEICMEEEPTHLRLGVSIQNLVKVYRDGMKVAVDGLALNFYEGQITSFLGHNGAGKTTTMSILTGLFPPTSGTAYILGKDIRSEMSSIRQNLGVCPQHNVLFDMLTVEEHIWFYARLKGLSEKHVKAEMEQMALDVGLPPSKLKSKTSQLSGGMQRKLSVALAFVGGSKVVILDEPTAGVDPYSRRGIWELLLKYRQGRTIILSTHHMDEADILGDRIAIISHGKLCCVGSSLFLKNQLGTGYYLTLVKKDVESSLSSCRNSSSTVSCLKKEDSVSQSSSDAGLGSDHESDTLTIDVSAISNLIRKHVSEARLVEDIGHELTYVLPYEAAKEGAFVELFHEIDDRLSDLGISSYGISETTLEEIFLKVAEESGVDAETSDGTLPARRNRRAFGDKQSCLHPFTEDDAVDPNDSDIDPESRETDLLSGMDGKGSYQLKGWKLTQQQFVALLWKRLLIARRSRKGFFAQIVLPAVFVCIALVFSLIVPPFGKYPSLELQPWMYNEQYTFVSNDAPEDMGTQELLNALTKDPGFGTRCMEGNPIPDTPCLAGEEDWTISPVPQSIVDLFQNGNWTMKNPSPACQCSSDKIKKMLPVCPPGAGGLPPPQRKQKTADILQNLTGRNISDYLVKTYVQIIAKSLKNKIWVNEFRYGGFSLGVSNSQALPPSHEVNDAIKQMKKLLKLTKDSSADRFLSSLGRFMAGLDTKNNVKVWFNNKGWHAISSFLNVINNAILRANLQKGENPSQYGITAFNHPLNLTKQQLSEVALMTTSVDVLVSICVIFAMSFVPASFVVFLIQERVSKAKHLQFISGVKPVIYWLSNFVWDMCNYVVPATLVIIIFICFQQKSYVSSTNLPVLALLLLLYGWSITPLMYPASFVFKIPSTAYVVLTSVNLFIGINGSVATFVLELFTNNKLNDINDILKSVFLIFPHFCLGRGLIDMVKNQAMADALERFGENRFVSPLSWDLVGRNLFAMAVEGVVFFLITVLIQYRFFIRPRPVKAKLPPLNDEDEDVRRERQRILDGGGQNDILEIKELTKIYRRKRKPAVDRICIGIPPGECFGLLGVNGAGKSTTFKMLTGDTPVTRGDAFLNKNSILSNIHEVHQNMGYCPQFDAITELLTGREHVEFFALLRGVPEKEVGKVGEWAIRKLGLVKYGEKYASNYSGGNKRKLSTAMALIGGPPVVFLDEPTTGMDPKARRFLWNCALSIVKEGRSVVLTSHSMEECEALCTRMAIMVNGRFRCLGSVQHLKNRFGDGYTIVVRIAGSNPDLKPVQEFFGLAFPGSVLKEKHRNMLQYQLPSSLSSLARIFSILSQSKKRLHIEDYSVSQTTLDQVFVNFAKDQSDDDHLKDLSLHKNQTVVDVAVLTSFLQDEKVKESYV

In the case of `C[C@@H](O)[C@H](N)C(=O)O` [Threonine], the “Hydrophobicity (scaled computational log(P))” value [1] is given as 0.450.

In the case of `O=C(O)[C@@H]1CCCN1` [Proline], the “Hydrophobicity (scaled computational log(P))” value [1] is given as 0.711.

In the case of “ELREKLEAFFELFREFLERF (synthetic amphipathic alpha-helix peptide ligand for ATP-binding cassette transporter A1 (ABCA1) having cholesterol efflux activity) [SEQ ID NO:33]”, the “cholesterol efflux from cells induced for the ABCA1 response (in words)” value (ABCA1 [2]) is reported as “relatively high-levels of cholesterol efflux”.

For `C[C@H](N)C(=O)O` [Alanine], the “Hydrophobicity (scaled computational log(P))” value [1] is listed as 0.616.

In the case of ELREKLEAWFELFREFLERF [N965-8], the “% cholesterol efflux (8 hours)” value (ABCA1 [2]; + cAMP (ABCA1 upregulated)) is reported as 5.26 ± 0.95%, the “% cholesterol efflux (8 hours)” value (ABCA1 [2]; no cAMP) is reported as 2.29 ± 0.16% and the “effect of acrolein on cholesterol efflux activity” value (ABCA1 [3]) is reported as “Acrolein greatly decreased the activity”. The “% cholesterol efflux/4 hours” value (ABCA1 [4]; peptide 0.1 μg/ml) was 0.15%, the “% cholesterol efflux/4 hours” value (ABCA1 [4]; peptide 0.3 μg/ml) was 0.52% and the “% cholesterol efflux/4 hours” value (ABCA1 [4]; peptide 1.0 μg/ml) was 1.72%. For the same compound, the “% cholesterol efflux/4 hours” value (ABCA1 [4]; peptide 3.0 μg/ml) was 4.60%, the “% cholesterol efflux/4 hours” value (ABCA1 [4]; peptide 10 μg/ml) was 3.62% and the “% cholesterol efflux/4 hours” value (ABCA1 [4]; peptide 30 μg/ml) was 3.66%.

In the case of `CC(C)[C@H](N)C(=O)O` [Valine], the “Hydrophobicity (scaled computational log(P))” value [1] is listed as 0.825.

In the case of `N[C@@H](Cc1ccc(O)cc1)C(=O)O` [Tyrosine], the “Hydrophobicity (scaled computational log(P))” value [1] is given as 0.880.

For `NC(=O)C[C@H](N)C(=O)O` [Asparagine], the “Hydrophobicity (scaled computational log(P))” value [1] is listed as 0.236.

In the case of ELRDRLEAWLDLLRELLERL [N1154-10], the “% cholesterol efflux (8 hours)” value (ABCA1 [2]; + cAMP (ABCA1 upregulated)) is reported as 8.25 ± 0.33%, the “% cholesterol efflux (8 hours)” value (ABCA1 [2]; no cAMP) is reported as 2.66 ± 0.41% and the “effect of acrolein on cholesterol efflux activity” value (ABCA1 [3]) is reported as “modest effects of acrolein”. For the same compound, the “% cholesterol efflux/4 hours” value (ABCA1 [4]; peptide 0.1 μg/ml) was 0.58%, the “% cholesterol efflux/4 hours” value (ABCA1 [4]; peptide 0.3 μg/ml) was 1.00% and the “% cholesterol efflux/4 hours” value (ABCA1 [4]; peptide 1.0 μg/ml) was 2.12%. For the same compound, the “% cholesterol efflux/4 hours” value (ABCA1 [4]; peptide 3.0 μg/ml) was 5.25%, the “% cholesterol efflux/4 hours” value (ABCA1 [4]; peptide 10 μg/ml) was 4.15% and the “% cholesterol efflux/4 hours” value (ABCA1 [4]; peptide 30 μg/ml) was 3.70%.

With “ELREKLEAWFELFREFLERFKS (synthetic amphipathic alpha-helix peptide ligand for ATP-binding cassette transporter A1 (ABCA1) having cholesterol efflux activity) [SEQ ID NO:31]” the “stimulation of ABCA1 cholesterol efflux (in words)” value (ABCA1 [2]; lipid-free peptide, J774 macrophages ± cAMP) was “stimulates ABCA1 cholesterol efflux, similar to 20-mer SEQ ID NO:2 peptide”.

For `CC[C@H](C)[C@H](N)C(=O)O` [Isoleucine], the “Hydrophobicity (scaled computational log(P))” value [1] is given as 0.943.

In the case of “ELREKLEALFELFREFLERF (synthetic amphipathic alpha-helix peptide ligand for ATP-binding cassette transporter A1 (ABCA1) having cholesterol efflux activity) [SEQ ID NO:32]”, the “cholesterol efflux from cells induced for the ABCA1 response (in words)” value (ABCA1 [2]) is reported as “relatively high-levels of cholesterol efflux”.

In the case of “ELREKLEAWFELFREFLERF ([dE][dL][dR][dE][dK][dL][dE][dA][dW][dF][dE][dL][dF][dR][dE][dF][dL][dE][dR][dF])”, the “change in HDL subpopulations in human plasma” value [5] is reported as “preferential increase in preβ-1 HDL”.

With “ELREKLEAWFELFAEFFARF (synthetic amphipathic alpha-helix peptide N356-6 ligand for ATP-binding cassette transporter A1 (ABCA1) having cholesterol efflux activity)” the “concentration giving max. efflux” value (ABCA1 [2]; concentration dependence, cAMP treated cells) was 3 µg/mL.

For ELREKLEAWREAFEEFFARFKS [N257-11], the “% cholesterol efflux (8 hours)” value (ABCA1 [2]; + cAMP (ABCA1 upregulated)) was 6.99 ± 1.4% and the “% cholesterol efflux (8 hours)” value (ABCA1 [2]; no cAMP) was 0.91 ± 0.1%.

In the case of `N[C@@H](CCC(=O)O)C(=O)O` [Glutamate], the “Hydrophobicity (scaled computational log(P))” value [1] is listed as 0.043.

In the case of `NCCCC[C@H](N)C(=O)O` [Lysine], the “Hydrophobicity (scaled computational log(P))” value [1] is given as 0.283.

For `N[C@@H](Cc1c[nH]c2ccccc12)C(=O)O` [Tryptophan], the “Hydrophobicity (scaled computational log(P))” value [1] is listed as 0.878.

In the case of “apoA-I: full-length apolipoprotein A-I, polypeptide comprising 243 amino acids, used lipid-free as comparator [reference compound]”, the Km (ABCA1 [2]; lipid-free, cAMP-treated cells, 4 h efflux data, read-out: Km for cholesterol efflux stimulation, molar basis) is reported as 0.12 ± 0.02 µM and the “Km for cholesterol efflux stimulation, mass basis” value (ABCA1 [2]; lipid-free, cAMP-treated cells, Michaelis-Menton fit of 4 h efflux data) is reported as 3.4 ± 0.6 µg/mL.

In the case of `N[C@@H](Cc1c[nH]cn1)C(=O)O` [Histidine], the “Hydrophobicity (scaled computational log(P))” value [1] is given as 0.165.

In the case of `N[C@@H](Cc1ccccc1)C(=O)O` [Phenylalanine], the “Hydrophobicity (scaled computational log(P))” value [1] is given as 1.00.

For `NCC(=O)O` [Glycine], the “Hydrophobicity (scaled computational log(P))” value [1] is listed as 0.501.

In the case of `CSCC[C@H](N)C(=O)O` [Methionine], the “Hydrophobicity (scaled computational log(P))” value [1] is listed as 0.738.

For `N=C(N)NCCC[C@H](N)C(=O)O` [Arginine], the “Hydrophobicity (scaled computational log(P))” value [1] is given as 0.000.
